Assay: Detection of hydrogen peroxide using coelenterazine borate with NanoLuc luciferase
Type: biochemical
Settings: 12.5 uM compound, 40 ng/ml NanoLuc luciferase, 200 mM Tris-Cl pH 8.5 or pH 9.0, FIG. 3
Experimental: PBI 4759 (10 mM; final concentration 12.5 uM), various concentrations of hydrogen peroxide and 40 ng/ml NanoLuc™ luciferase enzyme (Promega Corporation) were added to wells of a 96-well assay plate containing 200 mM Tris-Cl either at pH 8.5 or pH 9.0. Luminescence was detected on a GloMax® luminometer.

Question: For CC1(C)OB(c2ccc(COc3c(Cc4ccco4)nc4c(Cc5ccccc5)nc(-c5ccccc5)cn34)cc2)OC1(C)C [PBI 4759, 8-benzyl-2-(furan-2-ylmethyl)-6-phenyl-3-((4-(4,4,5,5-tetramethyl-1,3,2-dioxaborolan-2-yl)benzyl)oxy)imidazo[1,2-a]pyrazine], which “detection of hydrogen peroxide by luminescence (in words)” value is on record?
Answer: allows sensitive detection of hydrogen peroxide

Source: patent publication US8937183B2, “Detection of hydrogen peroxide” (Promega Corporation, priority 2011, dated 2015)
